# From ChEMBL document CHEMBL3352801, “Synthesis and lipid-lowering evaluation of 3-methyl-1H-purine-2,6-dione derivatives as potent and orally available anti-obesity agents” (Eur J Med Chem, 2014)
# Activity calls are given as the source filed them. The rule behind the calls is not given here.
# Test system: 3T3-L1
# Experiment: Inhibition of triglyceride accumulation in mouse 3T3L1 cells at 10 uM after 24 hrs
# Format: functional
# Details: not given
row,Structure (SMILES),inhibition
1,CCOC(=O)Cn1c(-c2ccc(OCCN(C)c3ccccn3)cc2)nc2c1c(=O)n(Cc1ccccc1C#N)c(=O)n2C,inactive
2,CCOC(=O)CCCn1c(-c2ccc(OCCN(C)c3ccccn3)cc2)nc2c1c(=O)n(Cc1ccccc1C#N)c(=O)n2C,inactive
3,CN(CCOc1ccc(-c2nc3c(c(=O)n(Cc4ccccc4C#N)c(=O)n3C)n2C)cc1)c1ccccn1,inactive
4,CCOC(=O)Cn1c(=O)c2c(nc(-c3ccc(OCCN(C)c4ccccn4)cc3)n2COC(=O)C(C)(C)C)n(C)c1=O,inactive
5,CN(CCOc1ccc(-c2nc3c(c(=O)n(Cc4ccccc4C#N)c(=O)n3C)n2CCO)cc1)c1ccccn1,Active
6,C=CCn1c(-c2ccc(OCCN(C)c3ccccn3)cc2)nc2c1c(=O)n(Cc1ccc(OC)cc1)c(=O)n2C,inactive
7,CN(CCOc1ccc(-c2nc3c(c(=O)n(CC(=O)O)c(=O)n3C)n2CC(=O)O)cc1)c1ccccn1,Active
8,CN(CCOc1ccc(-c2nc3c(c(=O)[nH]c(=O)n3C)n2COC(=O)C(C)(C)C)cc1)c1ccccn1,Active
9,CN(CCOc1ccc(-c2nc3c([nH]2)c(=O)n(CCCC(=O)O)c(=O)n3C)cc1)c1ccccn1,inactive
10,CCn1c(-c2ccc(OCCN(C)c3ccccn3)cc2)nc2c1c(=O)n(Cc1ccc(F)cc1)c(=O)n2C,inactive
11,C=CCn1c(=O)c2c(nc(-c3ccc(OCCN(C)c4ccccn4)cc3)n2CC=C)n(C)c1=O,inactive
12,C=CCn1c(-c2ccc(OCCN(C)c3ccccn3)cc2)nc2c1c(=O)n(Cc1ccccc1C#N)c(=O)n2C,inactive
13,CCCn1c(=O)c2c(nc(-c3ccc(OCCN(C)c4ccccn4)cc3)n2CCC)n(C)c1=O,inactive
14,CN(CCOc1ccc(-c2nc3c([nH]2)c(=O)n(CC(=O)O)c(=O)n3C)cc1)c1ccccn1,inactive
15,CN(CCOc1ccc(-c2nc3c(c(=O)n(Cc4ccccc4C#N)c(=O)n3C)n2CC(=O)O)cc1)c1ccccn1,inactive
16,CCn1c(=O)c2c(nc(-c3ccc(OCCN(C)c4ccccn4)cc3)n2CC)n(C)c1=O,inactive
17,CCCCn1c(-c2ccc(OCCN(C)c3ccccn3)cc2)nc2c1c(=O)n(Cc1ccccc1C#N)c(=O)n2C,Active
18,CCn1c(-c2ccc(OCCN(C)c3ccccn3)cc2)nc2c1c(=O)n(Cc1ccc(OC)cc1)c(=O)n2C,inactive
19,CCCCCn1c(-c2ccc(OCCN(C)c3ccccn3)cc2)nc2c1c(=O)n(Cc1ccccc1C#N)c(=O)n2C,inactive
20,C=CCn1c(=O)c2[nH]c(-c3ccc(OCCN(C)c4ccccn4)cc3)nc2n(C)c1=O,inactive
21,CCCn1c(=O)c2c(nc(-c3ccc(OCCN(C)c4ccccn4)cc3)n2CC)n(C)c1=O,inactive
22,CC(C)Cn1c(-c2ccc(OCCN(C)c3ccccn3)cc2)nc2c1c(=O)n(Cc1ccccc1C#N)c(=O)n2C,inactive
23,C=CCn1c(-c2ccc(OCCN(C)c3ccccn3)cc2)nc2c1c(=O)n(Cc1ccc(F)cc1)c(=O)n2C,inactive
24,CC(C)=CCn1c(-c2ccc(OCCN(C)c3ccccn3)cc2)nc2c1c(=O)n(Cc1ccccc1C#N)c(=O)n2C,inactive
25,CCCn1c(=O)c2[nH]c(-c3ccc(OCCN(C)c4ccccn4)cc3)nc2n(C)c1=O,inactive
26,CN(CCOc1ccc(-c2nc3c(c(=O)n(Cc4ccccc4C#N)c(=O)n3C)n2CCCC(=O)O)cc1)c1ccccn1,inactive
27,CCOC(=O)CCCn1c(=O)c2c(nc(-c3ccc(OCCN(C)c4ccccn4)cc3)n2COC(=O)C(C)(C)C)n(C)c1=O,inactive
28,COc1ccc(Cn2c(=O)c3[nH]c(-c4ccc(OCCN(C)c5ccccn5)cc4)nc3n(C)c2=O)cc1,inactive

# Same assay, conditions: 3T3-L1, 24 h
row,Structure (SMILES),inhibition at 10 µM [%]
1,NC(=O)c1ncn([C@@H]2O[C@H](CO)[C@@H](O)[C@H]2O)c1N [ACADESINE],51
